Results on eight compounds are retold here after US20190345138A1, “HETEROCYCLIC AMIDES AS KINASE INHIBITORS” (GlaxoSmithKline Intellectual Property Development Limited, priority 2016, published 2019).

In general, inhibition in vivo refers to the drop in the measured response relative to a control, in per cent.

Data set [1] deals with TNF-driven systemic inflammatory response syndrome model. The data set can be described thus: TNF-driven systemic inflammatory response syndrome model (TNF/zVAD or TNF alone), temperature loss. Format: in vivo. The conditions noted are these: Mus musculus, po, pre-dosed 15 minutes before i.v. mouse TNF alone or with zVAD; for inhibition in vivo at 10 mg/kg: 10 mg/kg PO; for inhibition in vivo at 3 mg/kg: 3 mg/kg PO. An excerpt: The efficacy of RIP1 inhibitors can be tested in mice in vivo using a TNF-driven systemic inflammatory response syndrome model (L. Duprez et al. Immunity 35(6):908-918, (2011)) using TNF plus the caspase inhibitor zVAD or TNF alone. The TNF/zVAD model is terminated at ˜3 hrs and the TNF alone model is terminated at ˜8 hrs (under IACUC guidelines for temperature loss). TNF (or TNF/zVAD) induced manifestations include temperature loss, the production of numerous cytokines (including IL-6, IL-1b, MIP1β and MIP2) in the periphery, liver and intestinal inflammation and an increase of markers of cellular (LDH and CK) and liver damage (AST and ALT) in the serum. Inhibition of these TNF alone or TNF/zVAD induced manifestations can be shown by PO pre-dosing with selected compounds. For example, mice (8 mice per group) were pre-dosed PO with vehicle or compound 15 minutes before i.v. administration of mouse TNF (30 μg/mouse) alone or in combination with zVAD (0.4 mg/mouse) simultaneously. Temperature loss in the mice was measured by rectal probe. The study was terminated when the control group lost 7 degrees, per our IACUC protocol. All data are shown as means±standard error of the mean.

Data set [2] relates to mouse L929 fibrosarcoma cells. Put plainly: necroptosis assay in L929 cells. The conditions noted are these: L929 cells, viability by cellular ATP (Cell Titer-Glo), read-out: pIC50, inhibited necrosis in L929 cells (converted). Format: cell-based. The procedure:
The efficacy of RIP1 inhibitors can be tested […] in vitro using a human monocytic leukemia U937 or mouse L929 fibrosarcoma cells in a necroptosis assay. As determined using the method described in S. He et al., Cell, 137(6):1100-1111 (2009) and International Patent Appln. No. PCT/IB2014/059004, now, International Patent Appln. Pub.
Viability was measured by quantitating cellular levels of ATP using the Cell Titer-Glo kit. All data are means±standard deviation of the mean.

Data set [3] has as its target T1, RIP1 kinase (Homo sapiens, UniProt Q13546).
T1 sequence (Q13546 1-375 limits assumed): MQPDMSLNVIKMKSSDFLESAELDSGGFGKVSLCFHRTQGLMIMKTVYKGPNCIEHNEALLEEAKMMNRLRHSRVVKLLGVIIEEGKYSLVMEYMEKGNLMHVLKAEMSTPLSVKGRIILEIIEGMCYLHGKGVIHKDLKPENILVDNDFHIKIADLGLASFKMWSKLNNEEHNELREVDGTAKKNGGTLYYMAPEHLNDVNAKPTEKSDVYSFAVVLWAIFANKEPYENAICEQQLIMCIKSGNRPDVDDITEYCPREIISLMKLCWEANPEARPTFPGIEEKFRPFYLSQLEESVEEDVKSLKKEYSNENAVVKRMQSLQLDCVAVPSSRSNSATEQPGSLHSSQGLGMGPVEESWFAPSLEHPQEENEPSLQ
The data set can be described thus: fluorescent polarization based binding assay. The conditions noted are these: mean of a minimum of 2 experiments. An excerpt: A fluorescent polarization based binding assay was used to assess the activity of the compounds of this invention, the details of which are disclosed in International Patent Appln. No. PCT/IB2014/059004, now, International Patent Appln. Pub.

In data set [4] the test system is human monocytic leukemia U937 cells. The data set can be described thus: necroptosis assay in U937 cells. Format: cell-based. The conditions noted are these: viability by cellular ATP (Cell Titer-Glo). The gist of the method:
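Necroptosis was induced in human U937 or mouse L929 cells, and viability was quantified as cellular ATP with Cell Titer-Glo. Data are means±standard deviation.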
(In general: In ATP-based viability assays light output follows the ATP content of the culture.)

The conditions of data set [5]: background statement; cited from earlier work.

SMILES strings stand for the structures. Where “and” joins values, the source holds several entries; their conditions need not be identical. Identical values can stand only once.

On to `Nc1cc(N2CCC(C(=O)N3N=CC[C@H]3c3ccccc3)CC2)ncn1` [Example 20, (S)-(1-(6-aminopyrimidin-4-yl)piperidin-4-yl)(5-phenyl-4,5-dihydro-1H-pyrazol-1-yl)methanone], for which the inhibition in vivo at 10 mg/kg in data set [1] worked out at 92%. Further, the IC50 is roughly 1000 nM in data set [2]; 1 to 31.6 nM and ~15.8 nM in data set [3].

With `NC(=O)c1cc(N2CCC(C(=O)N3N=CC[C@H]3c3ccccc3)CC2)ncn1` [Example 32, (S)-6-(4-(5-phenyl-4,5-dihydro-1H-pyrazole-1-carbonyl)piperidin-1-yl)pyrimidine-4-carboxamide], the inhibition in vivo at 10 mg/kg in data set [1] stood at 104%. The IC50 in data set [2] was roughly 316 nM; in data set [3] it was 1 to 31.6 nM and 1 to 10 nM and ~10 nM.

As for `N#Cc1cccc([C@@H]2CC=NN2C(=O)C2CCN(c3nccc(C(N)=O)n3)CC2)c1` [Example 71, (S)-2-(4-(5-(3-cyanophenyl)-4,5-dihydro-1H-pyrazole-1-carbonyl)piperidin-1-yl)pyrimidine-4-carboxamide], the inhibition in vivo at 10 mg/kg in data set [1] is 93%. Besides, the IC50 in data set [2] was roughly 794 nM; in data set [3] it was 1 to 31.6 nM and ~15.8 nM.

As for `NC(=O)c1cc(N2CCC(C(=O)N3N=CC[C@H]3c3cc(F)cc(F)c3)CC2)ncn1` [Example 85, (S)-6-(4-(5-(3,5-difluorophenyl)-4,5-dihydro-1H-pyrazole-1-carbonyl)piperidin-1-yl)pyrimidine-4-carboxamide], in data set [1], the inhibition in vivo at 3 mg/kg is 88%. Besides, the IC50 was roughly 316 nM in data set [2]; 1 to 31.6 nM and 1 to 10 nM and ~10 nM in data set [3].

Consider `NC(=O)c1cc(N2CCC(C(=O)N3N=CC[C@H]3c3cncc(F)c3)CC2)ncn1` [Example 108, (S)-6-(4-(5-(5-fluoropyridin-3-yl)-4,5-dihydro-1H-pyrazole-1-carbonyl)piperidin-1-yl)pyrimidine-4-carboxamide], for which, in data set [1] (0.1 mg/kg PO), the inhibition in vivo at 0.1 mg/kg is -4%. Besides, the inhibition in vivo at 1 mg/kg in data set [1] (1.0 mg/kg PO) is -11%. Also, the inhibition in vivo at 10 mg/kg in data set [1] was 54%. Further, the inhibition in vivo at 100 mg/kg in data set [1] (100 mg/kg PO) came to 94%. Moreover, the “pIC50, inhibited necrosis in U937 cells” value in data set [4] (U937 cells) is roughly 7.3. Further, the IC50 was roughly 10000 nM in data set [2]; 1 to 31.6 nM and ~31.6 nM in data set [3].

For `NC(=O)c1ccnc(N2CCC(C(=O)N3N=CC[C@H]3c3cncc(F)c3)CC2)n1` [Example 109, (S)-2-(4-(5-(5-fluoropyridin-3-yl)-4,5-dihydro-1H-pyrazole-1-carbonyl)piperidin-1-yl)pyrimidine-4-carboxamide], in data set [1], the inhibition in vivo at 3 mg/kg came out at 84%. Also, the IC50 is roughly 251 nM in data set [2]; 1 to 31.6 nM and ~25.1 nM in data set [3].

Take `NC(=O)c1cnc(N2CCC(C(=O)N3N=CC[C@H]3c3ccccc3)CC2)nc1` [Example 131, (S)-2-(4-(5-phenyl-4,5-dihydro-1H-pyrazole-1-carbonyl)piperidin-1-yl)pyrimidine-5-carboxamide]: in data set [1], the inhibition in vivo at 10 mg/kg was 83%. The IC50 is roughly 158 nM in data set [4] (Homo sapiens, U-937, U937 cells, read-out: pIC50, inhibited necrosis in U937 cells (converted)); roughly 3980 nM in data set [2]; roughly 39.8 nM in data set [3].

For the compound `CN1C(=O)C(Cc2c[nH]c3ccccc23)NC1=S` (stereo not drawn) [Necrostatin-1], in data set [5], the oral bioavailability result was “poor”.
